Measured values taken from ChEMBL document CHEMBL1135196, “4-Aminoarylguanidine and 4-aminobenzamidine derivatives as potent and selective urokinase-type plasminogen activator inhibitors” (Bioorg Med Chem Lett, 2002).

Legend:
[1] = biological target: Prothrombin (Homo sapiens, UniProt P00734); assay: Inhibition of thrombin
[2] = biological target: Urokinase-type plasminogen activator (Homo sapiens, UniProt P00749)
Description: Inhibition of urokinase-type plasminogen activator (microPa)

[3] = biological target: T1, Tissue-type plasminogen activator (Homo sapiens, UniProt P00750); assay: Activation of plasminogen
[4] = biological target: T2, Coagulation factor X (Homo sapiens, UniProt P00742); assay: The compound was evaluated to inhibit the Coagulation factor X
[5] = biological target: T1, Tissue-type plasminogen activator; assay: Activation of tissue plasminogen
[6] = biological target: T2, Coagulation factor X; assay: Inhibition of coagulation factor X
[7] = biological target: Plasminogen (Homo sapiens, UniProt P00747); assay: Inhibition of plasmin
Chain of Plasminogen (P00747 97-580 limits assumed): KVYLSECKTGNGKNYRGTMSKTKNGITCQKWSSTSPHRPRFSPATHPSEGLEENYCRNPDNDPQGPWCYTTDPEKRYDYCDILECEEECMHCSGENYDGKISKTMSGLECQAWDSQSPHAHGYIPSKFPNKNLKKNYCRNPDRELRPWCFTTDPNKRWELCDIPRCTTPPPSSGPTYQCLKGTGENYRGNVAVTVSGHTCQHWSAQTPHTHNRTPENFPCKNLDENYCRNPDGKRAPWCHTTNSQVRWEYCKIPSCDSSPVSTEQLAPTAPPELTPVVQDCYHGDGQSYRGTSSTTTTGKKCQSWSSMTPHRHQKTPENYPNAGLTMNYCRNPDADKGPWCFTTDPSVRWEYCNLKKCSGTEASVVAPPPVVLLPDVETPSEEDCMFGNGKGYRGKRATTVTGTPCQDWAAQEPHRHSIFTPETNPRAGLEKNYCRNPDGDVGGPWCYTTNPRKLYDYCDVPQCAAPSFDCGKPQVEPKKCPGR
Chain of Plasminogen (P00747 581-810 limits assumed): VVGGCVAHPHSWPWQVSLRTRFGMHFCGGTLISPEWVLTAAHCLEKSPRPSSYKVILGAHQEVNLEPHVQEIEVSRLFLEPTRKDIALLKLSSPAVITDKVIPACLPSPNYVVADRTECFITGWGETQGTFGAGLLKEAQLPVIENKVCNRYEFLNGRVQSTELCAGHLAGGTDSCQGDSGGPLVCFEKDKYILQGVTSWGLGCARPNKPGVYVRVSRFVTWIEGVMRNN

T2 sequence (P00742 41-179 limits assumed): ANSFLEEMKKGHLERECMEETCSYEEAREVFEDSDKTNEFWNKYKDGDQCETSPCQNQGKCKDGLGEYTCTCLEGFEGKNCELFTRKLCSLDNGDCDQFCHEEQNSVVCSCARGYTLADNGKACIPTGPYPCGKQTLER
T2 sequence (P00742 235-488 limits assumed): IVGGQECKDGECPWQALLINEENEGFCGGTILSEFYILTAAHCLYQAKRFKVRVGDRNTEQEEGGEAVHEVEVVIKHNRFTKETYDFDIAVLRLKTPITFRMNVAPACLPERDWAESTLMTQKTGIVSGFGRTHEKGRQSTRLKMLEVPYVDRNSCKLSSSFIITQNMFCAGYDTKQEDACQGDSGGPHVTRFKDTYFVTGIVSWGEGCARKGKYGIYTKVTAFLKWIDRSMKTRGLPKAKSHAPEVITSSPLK
T1 sequence (P00750 whole entry): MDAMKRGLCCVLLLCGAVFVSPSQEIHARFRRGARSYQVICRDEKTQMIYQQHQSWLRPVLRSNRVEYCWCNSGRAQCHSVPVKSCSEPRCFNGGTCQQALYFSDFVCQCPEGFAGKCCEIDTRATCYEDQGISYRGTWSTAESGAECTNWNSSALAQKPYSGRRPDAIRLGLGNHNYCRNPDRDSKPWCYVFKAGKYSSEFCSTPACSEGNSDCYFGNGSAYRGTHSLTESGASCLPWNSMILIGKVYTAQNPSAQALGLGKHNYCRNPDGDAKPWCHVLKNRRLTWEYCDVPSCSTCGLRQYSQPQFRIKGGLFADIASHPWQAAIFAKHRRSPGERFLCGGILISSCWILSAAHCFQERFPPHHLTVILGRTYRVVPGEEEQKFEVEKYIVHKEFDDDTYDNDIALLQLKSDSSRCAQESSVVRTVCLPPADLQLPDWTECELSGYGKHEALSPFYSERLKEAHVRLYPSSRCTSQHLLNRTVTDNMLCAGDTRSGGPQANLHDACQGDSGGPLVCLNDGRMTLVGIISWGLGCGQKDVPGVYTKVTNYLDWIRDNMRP

| Structure (SMILES) | Ki [1] [µM] | Ki [2] [µM] | Ki [3] [µM] | Ki [4] [µM] | Ki [5] [µM] | Ki [6] [µM] | Ki [7] [µM] |
| --- | --- | --- | --- | --- | --- | --- | --- |
| Cc1ccc(O)c(C(=O)Nc2ccc(C(=N)N)cc2)c1 | 14 | 2.6 | 6.9 | 9.4 |  |  |  |
| N=C(N)Nc1ccc(NC(=O)c2cc3ccccc3c(Br)c2O)cc1 | > 450 |  |  |  | > 95 | > 470 | > 75 |
| NC(N)=Nc1ccc(NC(=O)c2cccc(Cl)c2O)cc1 | > 450 |  |  |  | > 95 | 470 |  |
| [H]/N=C(/N)c1ccc(NC(=O)c2cc(C)cc(I)c2O)cc1Cl | 245 |  | 256 |  |  | 115 |  |
| N=C(N)c1ccc(NC(=O)c2cccc(-c3ccccc3)c2O)cc1 | 120 | 8.5 | 53 |  |  | 188 |  |
| Cc1ccc(C(=O)Nc2ccc(C(=N)N)cc2)c(O)c1 | 10 | 1 | 3.6 |  |  | 2.3 | 6 |
| NC(N)=Nc1ccc(NC(=O)c2ccccc2O)cc1 | > 450 |  | > 95 |  |  | 104 | > 75 |
| Cc1cccc(C(=O)Nc2ccc(NC(=N)N)cc2)c1O | > 450 |  |  |  | > 95 | 350 |  |
| NC(N)=Nc1ccc(NC(=O)c2ccc(Cl)cc2O)cc1 | > 450 |  |  |  | > 95 | > 470 |  |
| N=C(N)Nc1ccc(NC(=O)c2cc3ccccc3c(I)c2O)cn1 | 310 |  |  |  |  | 68 | > 75 |
| NC(N)=Nc1ccc(NC(=O)c2cc(Br)ccc2O)cc1 | > 450 |  | > 95 |  |  | > 470 |  |
| Cc1ccc(O)c(C(=O)Nc2ccc(NC(=N)N)cc2)c1 | > 450 |  | > 95 |  |  | > 470 | > 75 |
| N=C(N)c1ccc(NC(=O)c2ccccc2O)cc1 | 22 | 2.7 |  | 12 | 10 |  | 90 |
| N=C(N)c1ccc(NC(=O)c2cc(Br)ccc2O)cc1 | 29 |  | 21 | 15 |  |  |  |
| COc1ccc(O)c(C(=O)Nc2ccc(C(=N)N)cc2)c1 | 12 | 3.1 | 9.4 | 5.2 |  |  |  |
| COc1ccc(O)c(C(=O)Nc2ccc(NC(=N)N)cc2)c1 | > 450 | 20 |  |  | > 95 | > 470 |  |
| Cc1cc(I)c(O)c(C(=O)Nc2ccc(C(=N)N)c(F)c2)c1 |  |  | 1.7 |  |  | 0.52 |  |

| Structure (SMILES) | Ki [1] [µM] | Ki [2] [µM] | Ki [3] [µM] | Ki [4] [µM] | Ki [5] [µM] | Ki [6] [µM] | Ki [7] [µM] |
| --- | --- | --- | --- | --- | --- | --- | --- |
| N=C(N)Nc1ccc(NC(=O)c2cc3ccccc3c(Br)c2O)cn1 | 330 |  |  |  |  | 235 | > 75 |
| Cc1ccc(C(=O)Nc2ccc(NC(=N)N)cc2)c(O)c1 | > 450 |  |  |  | > 95 | > 470 |  |
| N=C(N)Nc1ccc(NC(=O)c2cc([N+](=O)[O-])ccc2O)cc1 | 315 | > 75 | > 95 |  |  | > 470 |  |
| Cc1cc(I)c(O)c(C(=O)Nc2ccc(C(=N)N)cc2)c1 | 0.38 |  | 0.24 |  |  | 0.46 | 0.29 |
| N=C(N)c1ccc(NC(=O)c2ccc(Cl)cc2O)cc1 | 9.5 | 6 | 2.4 | 2.8 |  |  | 27 |
| Cc1cc(I)c(O)c(C(=O)Nc2ccc(NC(=N)N)cc2)c1 | > 450 | 8.5 |  |  | > 563 | > 470 | > 75 |
| CC(C)Oc1c(O)c(C(=O)Nc2ccc(NC(=N)N)cc2)cc2ccccc12 | > 450 |  |  |  | > 563 | 240 |  |
| Cc1cc(Br)c(O)c(C(=O)Nc2ccc(C(=N)N)cc2)c1 | 0.28 |  | 0.36 |  |  | 0.44 |  |
| N=C(N)c1ccc(NC(=O)c2cc([N+](=O)[O-])ccc2O)cc1 | 185 | 44 | 94 | 99 |  |  |  |
| N=C(N)Nc1ccc(NC(=O)c2cc3ccccc3c(I)c2O)cc1 | > 450 |  |  |  | > 95 | > 470 | > 75 |
| Cc1cc(Br)c(O)c(C(=O)Nc2ccc(NC(=N)N)cc2)c1 | 125 |  |  |  | 258 | 151 | 205 |
| CCOc1ccc(C(=O)Nc2ccc(NC(=N)N)cc2)c(O)c1 | > 450 | 10 |  |  | > 95 | > 470 | > 75 |
| N=C(N)c1ccc(NC(=O)c2cccc(Cl)c2O)cc1 | 1 | 0.6 | 1.5 |  |  | 1 |  |
| CCOc1ccc(C(=O)Nc2ccc(C(=N)N)cc2)c(O)c1 | 34 | 0.65 | 2 | 37 |  |  |  |
| NC(N)=Nc1ccc(NC(=O)c2cccc(-c3ccccc3)c2O)cc1 | > 450 |  |  |  | > 95 | > 470 |  |
| Cc1cccc(C(=O)Nc2ccc(C(=N)N)cc2)c1O | 8 | 1.7 | 3.9 |  |  | 5.7 | 18 |
